Experiments:
LRRK2 protein [1] = target: T1, LRRK2 protein (Homo sapiens, UniProt Q5S007); test: LRRK2 protein phosphorylation inhibitory activity, Western blotting, 448T cells; type: cell-based, human (brain-tumor-patient-derived cell line); settings: after 1 day
T1 construct: endogenous in cells; host or cells: NCC01 (brain-tumor-patient-derived cell line)
Description: An experiment was conducted in order to evaluate the in-vitro drug efficacy of the compound of Comparative Example, known as an LRRK2 protein inhibitor.

LRRK2 protein [2] = target: T1, LRRK2 protein; test: LRRK2 protein phosphorylation inhibitory activity, Western blotting, NCC01 cells; type: cell-based, human (brain-tumor-patient-derived cell line); settings: after 1 day
Description: In order to evaluate drug efficacy in vitro, a Western blotting experiment was performed using brain-tumor-patient-derived cell line NCC01 cells.
(§1) Here, the group not treated with the compound of Example was used as a vehicle.
as §1
Here, the group not treated with the compound of Example was used as a vehicle. […]
More specifically, 7.5x10^5 to 1.0x10^6 cells were treated with the compound of Comparative Example at a concentration of 0.1 or 1.0 µM, and after 1 day, samples were collected and evaluated for LRRK2 protein phosphorylation inhibitory activity through Western blotting. Here, the group not treated with the compound of Example was used as a vehicle.

NCC01 cells [3] = test: Apoptosis induction activity, FACS, NCC01 cells; type: cell-based, human (brain-tumor-patient-derived cell line); settings: 100 nM, after 1 day
Description: In order to evaluate whether apoptosis of brain tumor cells is induced by inhibiting LRRK2 protein phosphorylation, an experiment was conducted using FACS (fluorescence-activated cell sorting).
More specifically, 7.5x10^5 to 1.0x10^6 NCC01 cells were treated with the compound of each of Examples 11, 12 and 21 at a concentration of 100 nM, and after 1 day, samples were collected and subjected to FACS, thus assaying the apoptosis induction activity. The group not treated with the compound of Example was used as a control.

U87MG cells = test: Therapeutic effect on brain tumor upon co-administration with Avastin, U87MG orthotopic mouse model; type: in vivo, Balb/c-nude mice; settings: Example 12 orally 30 mg/kg in combination with Avastin intraperitoneally 10 mg/kg, vs Avastin
Description: More specifically, orthotopic mouse models were manufactured using 5-week-old Balb/c-nude mice. U87MG cells (ATCC, USA), a brain tumor cell line, were injected 3.5 mm deep at a position 2.2 mm to the left of and 0.5 mm behind the bregma using a stereotaxic device. 3 days after injection of the cells, mice were divided into three groups of 5 mice per group (a control (vehicle), a group administered with Avastin, and a group administered with the compound of Example 12 and Avastin), and the drug was administered thereto. The compound of Example 12 was orally administered at a dose of 30 mg/kg and Avastin was injected intraperitoneally at a dose of 10 mg/kg.

448T cells = test: Growth inhibitory activity on brain tumor cells in animal model, 448T cells injected into the brain; type: in vivo, Balb/c-nude mouse; settings: orally, 60 mg/kg
Description: (§2) More specifically, 1.0x10^4 NCC01 cells, a brain-tumor-patient-derived cell line, were injected into the brain of a Balb/c-nude mouse model, and after 3 days, the compound of Example 12 was orally administered at a dose of 10 mg/kg or 60 mg/kg. After administration of the compound, the survival rate of the mice based on the survival period was determined, and the size of the tumors generated in the mice was measured using MRI. Here, the group not treated with the compound of Example was used as a vehicle.
Specifically, the experiment was conducted in the same manner under the same conditions as in Experimental Example 14, with the exception that 448T cells were used in lieu of NCC01 cells, and the compound of each of Examples 12, 20 and 21 was orally administered at a dose of 60 mg/kg.

NCC01 cells [4] = test: Mitochondrial function, TMRE staining of activated mitochondria, NCC01 cells; type: cell-based, human (brain-tumor-patient-derived cell line); settings: after 1 day
Description: Specifically, NCC01 cells were treated with the compound of Example 12 at 1 µM, and after 1 day, TMRE (tetramethylrhodamine ethylester) dye for staining activated mitochondria was added thereto to evaluate changes in mitochondrial function. Here, the group not treated with the compound of Example was used as a control.
Specifically, brain tumor stem cell line NCC01 cells were treated with the compound of Example 12 at a concentration of 0.1 or 1 µM, and after 1 day, the mitochondria were stained as described in Experimental Example 9 to assay changes in the function thereof. Here, the group not treated with the compound of Example was used as a vehicle.

[5] = tested on: TRAP1 (TNF receptor associated protein 1); test: TRAP1 expression, Western blotting, brain tumor stem cell line NCC01; type: cell-based, human (brain-tumor-patient-derived cell line); settings: NCC01 cells, 100 or 1,000 nM, after 1 day
Description: Specifically, brain tumor stem cell line NCC01 cells were added with the compound of Example 12 at a concentration of 100 or 1,000 nM, and after 1 day, changes in the expression of TRAP1 were measured through Western blotting. Here, the group not treated with the compound of Example was used as a vehicle.

LRRK2 protein [6] = target: T1, LRRK2 protein; test: LRRK2 protein phosphorylation inhibitory activity, Western blotting, NCC01 cells; type: cell-based, human (brain-tumor-patient-derived cell line); settings: for LRRK2 protein phosphorylation: after 1 day
NESTIN protein = test: Expression of NESTIN protein (cancer stem cell marker), Western blotting, NCC01 cells; type: cell-based, human (brain-tumor-patient-derived cell line); settings: 50 to 2,000 nM, after 1 day
Description: More specifically, 1.0x10^6 NCC01 cells were treated with the compound of Example 12 at concentrations of 50, 100, 500, 1,000 and 2,000 nM. After 1 day, samples were collected and the expression of NESTIN protein, which is a cancer stem cell marker involved in the intracellular signaling pathway, was measured through Western blotting. Here, the group not treated with the compound of Example was used as a vehicle.

NCC01 cells [7] = test: Growth inhibitory activity on brain tumor cells in animal model, NCC01 cells injected into the brain; type: in vivo, Balb/c-nude mouse; settings: orally
Description: as §2

528NS cells = test: Sphere size under hypoxic conditions with shRNA against the LRRK2 gene, 528NS cells; type: cell-based; settings: 528NS cells exposed to hypoxic conditions
Description: (§3) Specifically, NCC01 and 528NS cells were exposed to hypoxic conditions and treated with two kinds of shRNA against the LRRK2 gene, after which changes in the size of spheres were measured. Here, a control was shRNA (shNT) against luciferase.

NCC01 cells [8] = test: Sphere size under hypoxic conditions with shRNA against the LRRK2 gene, NCC01 cells; type: cell-based, human (brain-tumor-patient-derived cell line); settings: NCC01 cells exposed to hypoxic conditions
Description: as §3

[9] = 100 or 1,000 nM, compared to the vehicle

T1 sequence (Q5S007 whole entry): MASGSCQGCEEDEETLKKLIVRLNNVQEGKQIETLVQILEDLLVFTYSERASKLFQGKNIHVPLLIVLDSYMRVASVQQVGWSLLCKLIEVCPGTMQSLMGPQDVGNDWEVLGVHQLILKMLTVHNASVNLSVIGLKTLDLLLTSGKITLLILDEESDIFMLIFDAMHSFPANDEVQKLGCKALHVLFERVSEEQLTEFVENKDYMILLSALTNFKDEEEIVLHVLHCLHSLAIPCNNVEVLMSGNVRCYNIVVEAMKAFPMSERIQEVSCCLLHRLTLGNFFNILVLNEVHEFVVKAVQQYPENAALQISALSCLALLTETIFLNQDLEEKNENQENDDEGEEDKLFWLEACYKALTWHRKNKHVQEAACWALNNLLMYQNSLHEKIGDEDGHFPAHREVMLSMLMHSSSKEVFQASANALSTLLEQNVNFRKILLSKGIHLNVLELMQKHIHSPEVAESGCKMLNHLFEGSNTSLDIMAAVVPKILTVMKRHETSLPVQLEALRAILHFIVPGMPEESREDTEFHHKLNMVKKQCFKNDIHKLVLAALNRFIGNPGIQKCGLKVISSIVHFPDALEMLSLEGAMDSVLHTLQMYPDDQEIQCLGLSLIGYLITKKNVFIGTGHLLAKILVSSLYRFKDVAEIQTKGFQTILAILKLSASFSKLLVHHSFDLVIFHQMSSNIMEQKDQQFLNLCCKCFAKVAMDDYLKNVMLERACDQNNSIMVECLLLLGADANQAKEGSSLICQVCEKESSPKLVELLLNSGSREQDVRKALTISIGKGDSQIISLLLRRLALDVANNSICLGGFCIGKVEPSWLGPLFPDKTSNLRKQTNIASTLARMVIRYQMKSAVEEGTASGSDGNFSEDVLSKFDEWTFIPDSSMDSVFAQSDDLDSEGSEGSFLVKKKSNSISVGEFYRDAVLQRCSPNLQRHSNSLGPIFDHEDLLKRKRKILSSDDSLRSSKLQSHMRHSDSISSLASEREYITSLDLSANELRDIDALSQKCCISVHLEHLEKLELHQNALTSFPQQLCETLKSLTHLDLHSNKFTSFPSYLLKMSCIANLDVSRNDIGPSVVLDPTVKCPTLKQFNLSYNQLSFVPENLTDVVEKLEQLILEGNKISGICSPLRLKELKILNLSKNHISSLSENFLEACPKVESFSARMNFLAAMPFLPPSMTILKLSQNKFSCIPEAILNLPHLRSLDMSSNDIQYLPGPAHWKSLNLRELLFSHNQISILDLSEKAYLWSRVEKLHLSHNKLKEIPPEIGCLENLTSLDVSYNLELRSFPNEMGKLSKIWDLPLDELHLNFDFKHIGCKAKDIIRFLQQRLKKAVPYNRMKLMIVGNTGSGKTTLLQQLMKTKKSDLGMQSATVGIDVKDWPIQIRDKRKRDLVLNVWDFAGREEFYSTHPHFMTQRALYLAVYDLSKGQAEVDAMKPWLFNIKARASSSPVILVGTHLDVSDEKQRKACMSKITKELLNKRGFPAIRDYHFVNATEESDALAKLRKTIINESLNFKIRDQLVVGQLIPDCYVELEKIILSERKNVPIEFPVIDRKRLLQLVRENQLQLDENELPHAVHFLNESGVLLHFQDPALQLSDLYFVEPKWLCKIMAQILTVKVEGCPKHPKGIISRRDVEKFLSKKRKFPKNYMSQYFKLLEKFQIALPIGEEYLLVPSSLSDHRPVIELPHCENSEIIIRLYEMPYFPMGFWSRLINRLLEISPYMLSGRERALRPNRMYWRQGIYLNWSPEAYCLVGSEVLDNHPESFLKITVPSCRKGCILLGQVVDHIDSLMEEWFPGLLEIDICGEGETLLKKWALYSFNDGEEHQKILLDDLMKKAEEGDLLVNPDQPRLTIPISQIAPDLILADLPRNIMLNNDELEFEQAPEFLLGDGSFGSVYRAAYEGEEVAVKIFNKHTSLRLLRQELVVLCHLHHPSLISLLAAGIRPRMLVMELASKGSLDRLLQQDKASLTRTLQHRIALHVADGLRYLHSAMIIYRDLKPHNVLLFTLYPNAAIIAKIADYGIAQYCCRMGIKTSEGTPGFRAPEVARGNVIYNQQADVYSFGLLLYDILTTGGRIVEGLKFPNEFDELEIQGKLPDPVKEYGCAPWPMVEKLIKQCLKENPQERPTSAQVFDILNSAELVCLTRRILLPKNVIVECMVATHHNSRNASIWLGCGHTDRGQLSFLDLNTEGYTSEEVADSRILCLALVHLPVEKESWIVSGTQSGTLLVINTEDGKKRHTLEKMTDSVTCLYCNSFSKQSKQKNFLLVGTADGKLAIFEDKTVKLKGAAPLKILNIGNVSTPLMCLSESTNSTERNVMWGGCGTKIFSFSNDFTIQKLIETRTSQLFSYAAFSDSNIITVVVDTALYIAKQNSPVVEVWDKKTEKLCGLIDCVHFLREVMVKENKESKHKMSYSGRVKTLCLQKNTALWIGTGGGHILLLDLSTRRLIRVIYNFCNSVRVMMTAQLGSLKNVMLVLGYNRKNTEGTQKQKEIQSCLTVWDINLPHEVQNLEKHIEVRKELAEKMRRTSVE

CNc1nc(Nc2cn(C(C)(C)C#N)nc2C)ncc1C(F)(F)F [Comparative Example, 2-Methyl-2-[3-Methyl-4-[[4-(Methylamino)-5-(Trifluoromethyl)Pyrimidin-2-yl]Amino]Pyrazol-1-yl]Propanenitrile, reference compound]
LRRK2 protein phosphorylation (LRRK2 protein [1]; 0.1 or 1.0 µM, Examples stated by contrast ('unlike' = inhibited)): did not inhibit | LRRK2 protein phosphorylation (LRRK2 protein [2]; 0.1 or 1.0 µM): did not inhibit

COc1cc(C(=O)N2CCC(N3CCN(C)CC3)CC2)ccc1Nc1ncc2c(n1)N(C)c1ccccc1C(=O)N2C [Example 10, 2-[(2-Methoxy-4-[[4-(4-Methylpiperazin-1-yl)Piperidin-1-yl]Carbonyl]Phenyl)Amino]-5,11-Dimethyl-5,11-Dihydro-6H-Pyrimido[4,5-b][1,4]Benzodiazepin-6-One]
LRRK2 protein phosphorylation (LRRK2 protein [1]; [9]): significantly inhibited | LRRK2 protein phosphorylation (LRRK2 protein [2]; [9]): significantly inhibited | phosphorylated LRRK2 protein (LRRK2 protein [2]; concentration of 100 nM): detected

CCNc1nc(Nc2cc(F)c(C(=O)N3CCOCC3)cc2OC)ncc1C(F)(F)F [Example 11, (4-(4-(Ethylamino)-5-(Trifluoromethyl)Pyrimidin-2-Ylamino)-2-Fluoro-5-Methoxyphenyl) (Morpholino)Methanone]
LRRK2 protein phosphorylation (LRRK2 protein [1]; [9]): significantly inhibited | apoptosis of NCC01 cells (NCC01 cells [3]): induced | LRRK2 protein phosphorylation (LRRK2 protein [2]; [9]): significantly inhibited

CNc1nc(Nc2ccc(C(=O)N3CCOCC3)cc2OC)ncc1C(F)(F)F [Example 12, (3-Methoxy-4-(4-(Methylamino)-5-(Trifluoromethyl)Pyrimidin-2-Ylamino)Phenyl)(Morpholino)Methanone]
therapeutic effect of Avastin on brain tumors (survival) (U87MG cells): further significantly increased | tumor at the position to which the 448T cells were injected (448T cells): no tumor was observed | fragmentation of nuclei in the cells (NCC01 cells [4]; 1 µM): occurred | degree of color development of the TMRE dye (NCC01 cells [4]; 1 µM, vs control): decreased | activity of the mitochondria present in the brain tumor stem cells (NCC01 cells [4]; 0.1 or 1 µM, compared to the control): inhibited | expression of TRAP1 [5]: inhibited | LRRK2 protein phosphorylation (LRRK2 protein [1]; [9]): significantly inhibited | LRRK2 protein phosphorylation (LRRK2 protein [1]; concentration of 50 nM): inhibited most | apoptosis of NCC01 cells (NCC01 cells [3]): induced | apoptosis rate relative to the compounds of Examples 11 and 21 (NCC01 cells [3]): about 3 times | LRRK2 protein phosphorylation (LRRK2 protein [2]; [9]): significantly inhibited | extent of LRRK2 protein phosphorylation over time (LRRK2 protein [6]; NCC01 cells, 100 nM, starting 1 day after treatment, samples after 1, 4 and 8 days, reduction continued over time): drastically reduced | LRRK2 protein phosphorylation (LRRK2 protein [6]; NCC01 cells, 50, 100, 500, 1,000 and 2,000 nM, concentration-dependent): inhibited | LRRK2 protein phosphorylation (LRRK2 protein [6]; NCC01 cells, concentrations of 50 and 100 nM): mostly inhibited | expression of NESTIN protein (NESTIN protein): reducing | tumor at the position to which the NCC01 cells were injected (MRI) (NCC01 cells [7]; 10 mg/kg or 60 mg/kg): no tumor was observed | average survival period of the mice (NCC01 cells [7]; 10 mg/kg, vehicle 54 days): 71 days | survival of all the mice (NCC01 cells [7]; 60 mg/kg, vehicle average 54 days): ≥ 100 days

C[C@@H]1CN(c2cc(-c3n[nH]c4ccc(OC5(C)CC5)cc34)ncn2)C[C@H](C)O1 [Example 20, (2S,6R)-2,6-Dimethyl-4-(6-(5-(1-Methylcyclopropoxy)-1H-Indazol-3-yl)Pyrimidin-4-yl)Morpholine]
tumor at the position to which the 448T cells were injected (448T cells): no tumor was observed

N#Cc1cccc(-c2c[nH]c3nccc(N4CCOCC4)c23)c1 [Example 21, 3-(4-Morpholino-1H-Pyrrolo[2,3-b]Pyridin-3-yl)Benzonitrile]
tumor at the position to which the 448T cells were injected (448T cells): no tumor was observed | LRRK2 protein phosphorylation (LRRK2 protein [1]; [9]): significantly inhibited | apoptosis of NCC01 cells (NCC01 cells [3]): induced | LRRK2 protein phosphorylation (LRRK2 protein [2]; [9]): significantly inhibited

Cn1cc(-c2c[nH]c3ncnc(N4CCOCC4)c23)cc1C#N [Example 22, 1-Methyl-4-(4-Morpholino-7H-Pyrrolo[2,3-d]Pyrimidin-5-yl)-1H-Pyrrole-2-Carbonitrile]
LRRK2 protein phosphorylation (LRRK2 protein [2]; [9]): significantly inhibited

LRRK2 shRNA-1: shRNA against the LRRK2 gene, SEQ ID NO: 33 (CCGGCCACAAATTCAACGGAAAGAACTCGAGTTCTTTCCGTTGAATTTGTGGTTTTT)
sphere size (528NS cells): suppressed | sphere size (NCC01 cells [8]): suppressed

LRRK2 shRNA-2: shRNA against the LRRK2 gene, SEQ ID NO: 34 (CCGGCCCAAATTGGTGGAACTCTTACTCGAGTAAGAGTTCCACCAATTTGGGTTTTT)
sphere size (528NS cells): suppressed | sphere size (NCC01 cells [8]): suppressed

Reference: patent publication US20230248740A1, “Pharmaceutical Composition Comprising Compound Capable of Penetrating Blood-Brain Barrier as Effective Ingredient for Preventing or Treating Brain Cancer” (DAEGU-GYEONGBUK MEDICAL INNOVATION FOUNDATION, priority 2017, published 2023)
